Laboratory results as given in article PMC6421848 (European journal of medicinal chemistry, 2018).

How the values were obtained:
[1] = tested on: HeLaS3 cells; assay: SRB antiproliferation assay, HeLaS3; details: read-out: IC50 HeLaS3, 72 h, mean ± SD of three experiments
[2] = tested on: KB-vin cells; assay: Mitochondrial membrane potential assay, KB-vin; format: cell-based, human; details: 24 h treatment
[3] = tested on: HeLaS3 cells; assay: Mitochondrial membrane potential assay, HeLaS3; format: cell-based, human; details: HeLaS3, 24 h treatment
[4] = tested on: KB-vin cells; assay: ROS generation, KB-vin; format: cell-based, human; details: 24 h treatment
[5] = tested on: HeLaS3 cells; assay: ROS generation, HeLaS3; format: cell-based, human; details: HeLaS3, 24 h treatment
[6] = target: T1, NQO1 (Homo sapiens, UniProt P15559); assay: NQO1 activity assay kit in treated HeLaS3 cells; details: HeLaS3, 24 h, serial concentrations
[7] = target: T1, NQO1; assay: NQO1 activity assay kit in treated KB-vin cells; details: 24 h, serial concentrations
[8] = target: T1, NQO1; assay: NQO1 inhibitory kinetic assay; format: biochemical
[9] = tested on: KB-vin cells; assay: NQO1-dependent cytotoxicity; details: SRB, 72 h
[10] = tested on: HeLaS3 cells; assay: NQO1-dependent cytotoxicity; details: HeLaS3, SRB, 72 h
[11] = tested on: HeLaS3 cells; assay: Western blot of apoptotic proteins; format: cell-based, human; details: HeLaS3, 72 h
[12] = tested on: normal endometrial epithelial cells (EECs); assay: MTT proliferation assay, normal endometrial epithelial cells; format: cell-based; details: increasing doses, 72 h
[13] = tested on: HeLaS3 cells; assay: MTT proliferation assay, HeLaS3; format: cell-based, human; details: increasing doses, 72 h

T1 sequence (P15559 whole entry): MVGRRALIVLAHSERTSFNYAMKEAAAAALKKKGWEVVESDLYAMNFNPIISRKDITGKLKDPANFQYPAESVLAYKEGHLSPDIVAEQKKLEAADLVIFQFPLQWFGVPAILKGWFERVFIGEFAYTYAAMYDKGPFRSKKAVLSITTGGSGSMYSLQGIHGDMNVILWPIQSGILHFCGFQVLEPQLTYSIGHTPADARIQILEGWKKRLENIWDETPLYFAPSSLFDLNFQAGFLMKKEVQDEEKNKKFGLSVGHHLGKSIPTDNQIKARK

IC50 [1]	NQO1 activity after treatment [6]	NQO1 activity after treatment [7]	Compound	mitochondrial membrane potential [2]	mitochondrial membrane potential [3]	ROS production [4]	ROS production [5]	further results
5.07 ± 0.1 µM			7-((4-([1,4’ -Bipiperidin]-1’ -yl)phenyl)amino)quinoline-5,8-dione [Compound 7f]					
	inhibited dose-dependently	inhibited dose-dependently	O=C1C=C(NCCc2c[nH]c3ccccc23)C(=O)c2ncccc21 [Compound 7a, 7-((2-(1H-Indol-3-yl)ethyl)amino)quinoline-5,8-dione]	significantly decreased in a dose-dependent manner	significantly decreased in a dose-dependent manner	increased dose-dependently	increased dose-dependently	

Second part, the compound before the results:

Compound	IC50 [1]	NQO1 activity after treatment [6]	NQO1 activity after treatment [7]	mitochondrial membrane potential [2]	mitochondrial membrane potential [3]	ROS production [4]	ROS production [5]	further results
6-((4-([1,4’ -Bipiperidin]-1’ -yl)phenyl)amino)quinoline-5,8-dione [Compound 6f]	5.16 µM							
CN1CCN(c2ccc(NC3=CC(=O)c4ncccc4C3=O)cc2)CC1 [Compound 6d, 6-((4-(4-Methylpiperazin-1-yl)phenyl)amino)quinoline-5,8-dione]				significantly decreased in a dose-dependent manner	significantly decreased in a dose-dependent manner	increased dose-dependently	increased dose-dependently	
COC(=O)/C=C/c1cccc(CNC2=CC(=O)c3ncccc3C2=O)c1 [Compound 6h, (E)-Methyl 3-(3-(((5,8-dioxo-5,8-dihydroquinolin-6-yl)amino)methyl)phenyl)acrylate]		inhibited dose-dependently	inhibited dose-dependently	significantly decreased in a dose-dependent manner	significantly decreased in a dose-dependent manner	increased dose-dependently	increased dose-dependently	
CN1CCN(c2ccc(NC3=CC(=O)c4cccnc4C3=O)cc2)CC1 [Compound 7d, 7-((4-(4-Methylpiperazin-1-yl)phenyl)amino)quinoline-5,8-dione]		inhibited dose-dependently	inhibited dose-dependently	significantly decreased in a dose-dependent manner	significantly decreased in a dose-dependent manner	increased dose-dependently	increased dose-dependently	mode of NQO1 inhibition ([8]; Lineweaver-Burk plots): competitive inhibitors; maximum rate (Vmax) ([8]; remained the same as inhibitor concentration increased): 11.03 ± 1.5 nmol/mg protein/20s; cell viability of compound-treated cells on addition of DIC and NAc [9]: significantly increased; cell viability of compound-treated cells on addition of DIC and NAc [10]: significantly increased; cleavage of caspase-3 [11]: induced more cleavage of caspase-3 than the control group; levels of anti-apoptotic Bcl-2 expression ([11]; dose-dependent): reduced; relative levels of pro-apoptotic Bax expression ([11]; dose-dependent): dramatically increased; effect on survival of non-tumor EECs [12]: no significant effect; effect on HeLaS3 cells, same treatment regimen [13]: induced major HeLaS3 cell death
